In ChEMBL document CHEMBL1123274, “Azasteroids: structure-activity relationships for inhibition of 5 alpha-reductase and of androgen receptor binding” (J Med Chem, 1986) one finds IC50 and Ki app data, which are given here for 49 compounds.

The target in the first experiment is T1, Androgen receptor (Rattus norvegicus, UniProt P15207).
T1 sequence (P15207 whole entry): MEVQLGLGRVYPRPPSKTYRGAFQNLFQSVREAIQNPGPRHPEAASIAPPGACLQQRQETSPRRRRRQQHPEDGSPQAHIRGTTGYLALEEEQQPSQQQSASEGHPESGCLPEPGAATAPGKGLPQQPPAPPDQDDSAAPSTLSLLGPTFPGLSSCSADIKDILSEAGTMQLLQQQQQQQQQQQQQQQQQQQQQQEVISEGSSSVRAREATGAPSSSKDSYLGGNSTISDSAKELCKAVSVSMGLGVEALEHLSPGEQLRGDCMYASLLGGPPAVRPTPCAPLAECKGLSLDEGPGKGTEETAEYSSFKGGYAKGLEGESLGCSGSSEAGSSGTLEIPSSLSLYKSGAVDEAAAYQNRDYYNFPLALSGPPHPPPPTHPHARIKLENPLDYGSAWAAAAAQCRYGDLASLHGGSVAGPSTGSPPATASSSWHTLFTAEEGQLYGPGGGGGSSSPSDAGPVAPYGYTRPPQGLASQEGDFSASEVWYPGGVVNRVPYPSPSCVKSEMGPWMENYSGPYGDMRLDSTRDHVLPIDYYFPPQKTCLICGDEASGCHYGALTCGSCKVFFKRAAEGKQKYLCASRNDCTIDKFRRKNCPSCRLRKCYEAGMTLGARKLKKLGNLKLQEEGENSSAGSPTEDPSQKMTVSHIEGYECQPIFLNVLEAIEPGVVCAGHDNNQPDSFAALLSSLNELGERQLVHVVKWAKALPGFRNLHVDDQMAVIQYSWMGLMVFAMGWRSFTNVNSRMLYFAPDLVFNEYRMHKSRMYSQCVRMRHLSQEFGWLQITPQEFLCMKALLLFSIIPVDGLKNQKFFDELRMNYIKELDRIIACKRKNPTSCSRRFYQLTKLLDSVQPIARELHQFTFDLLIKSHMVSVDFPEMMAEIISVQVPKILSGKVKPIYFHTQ
Kind of experiment: In vitro antagonist activity against rat prostatic androgen receptor (AR).
With `CCNC(=O)[C@H]1CC[C@H]2[C@@H]3CCC4N(C)C(=O)CC[C@]4(C)[C@H]3CC[C@]12C` (stereo partly drawn), the IC50 (commonly the concentration at which inhibition is half-maximal) was determined as 1100 nM.
Still for that read-out and setting: the figure for `CCC(C)C(=O)[C@H]1CC[C@H]2[C@@H]3CCC4NC(=O)C=C[C@]4(C)[C@H]3CC[C@]12C` (stereo partly drawn) is over 100000 nM; for `CN1C(=O)CC[C@@]2(C)C1CC[C@H]1[C@@H]3CC[C@H](C(=O)NC(C)(C)CO)[C@@]3(C)CC[C@@H]12` (stereo partly drawn) it is 940 nM.
The same measure, in the same setting: the figure for `CCCCCCCCNC(=O)[C@H]1CC[C@H]2[C@@H]3CCC4NC(=O)CC[C@]4(C)[C@H]3CC[C@]12C` (stereo partly drawn) is 5200 nM.
`CCN(CC)C(=O)C[C@H]1CC[C@H]2[C@@H]3CCC4N(C)C(=O)CC[C@]4(C)[C@H]3CC[C@]12C` (stereo partly drawn) gave an IC50 of 560 nM.
Still for that read-out and setting: the figure for `CCN(CC)C(=O)[C@H]1CCC[C@H]2[C@@H]3CC[C@H]4N(C)C(=O)CC[C@]4(C)[C@H]3CC[C@]12C` is 7100 nM; for `CN1C(=O)CC[C@@]2(C)C1CC[C@H]1[C@@H]3CC[C@H](C(=O)C=[N+]=[N-])[C@@]3(C)CC[C@@H]12` (stereo partly drawn) it is 580 nM.
On the same count and under the same terms, with `CN1C(=O)CC[C@H]2C1=CC[C@@H]1[C@@H]2CC[C@@]2(C)[C@H]1CC[C@@]21CCCO1` (stereo in doubt; 74) the figure was 240 nM; with `CC(C)CC(=O)[C@H]1CC[C@H]2[C@@H]3CCC4NC(=O)C=C[C@]4(C)[C@H]3CC[C@]12C` (stereo partly drawn), over 100000 nM.
Regarding `CN1C(=O)C=C[C@]2(C)[C@H]3CC[C@]4(C)[C@@H](O)CC[C@H]4[C@@H]3CC[C@@H]12`, the IC50 was 2.4 nM.
Compound `COC(=O)[C@H]1CC[C@H]2[C@@H]3CC[C@H]4NC(=O)C=C[C@]4(C)[C@H]3CC[C@]12C` registered an IC50 of 3200 nM.
On the same count and under the same terms, with `CO[C@H]1CC(=O)NC2CC[C@H]3[C@@H]4CC[C@H](C(N)=O)[C@@]4(C)CC[C@@H]3[C@]21C` (stereo partly drawn) the figure was over 100000 nM; with `CCN(CC)C(=O)[C@H]1CC[C@H]2[C@@H]3CC[C@H]4N(C)C(=O)[C@@H](OC)C[C@]4(C)[C@H]3CC[C@]12C`, over 10000 nM; with `COC(=O)C(C)[C@H]1CC[C@H]2[C@@H]3CCC4N(C)C(=O)C=C[C@]4(C)[C@H]3CC[C@]12C` (stereo partly drawn), 270 nM.
The same measure, in the same setting: the figure for `COC(=O)[C@H]1CC[C@H]2[C@@H]3CC[C@H]4N(C)C(=O)C=C[C@]4(C)[C@H]3CC[C@]12C` is 13 nM; for `CC(C(=O)O)[C@H]1CC[C@H]2[C@@H]3CCC4NC(=O)CC[C@]4(C)[C@H]3CC[C@]12C` (stereo partly drawn) it is over 100000 nM; for `CCCCCNC(=O)[C@H]1CC[C@H]2[C@@H]3CCC4N(C)C(=O)CC[C@]4(C)[C@H]3CC[C@]12C` (stereo partly drawn) it is 250 nM.
As for `C[C@]12CC[C@H]3[C@@H](CCC4NC(=O)CC[C@@]43C)[C@@H]1CC[C@@H]2C(N)=O` (stereo partly drawn), the IC50 was over 100000 nM.
Same read-out and setting: the figure for `C[C@]12C=CC(=O)N[C@@H]1CC[C@@H]1[C@@H]2CC[C@]2(C)[C@@H](C(N)=O)CC[C@@H]12` is over 10000 nM; for `CN1C(=O)C=C[C@]2(C)[C@H]3CC[C@]4(C)[C@@H](C(N)=O)CC[C@H]4[C@@H]3CC[C@@H]12` it is 150 nM.
The same measure, in the same setting: the figure for `CCN(CC)C(=O)[C@H]1CC[C@H]2[C@@H]3CC[C@H]4NC(=O)CCC[C@]4(C)[C@H]3CC[C@]12C` is over 10000 nM; for `CCN(CC)C(=O)[C@H]1CC[C@H]2[C@@H]3CC[C@H]4N(C)C(=O)[C@@H]5O[C@@H]5[C@]4(C)[C@H]3CC[C@]12C` it is 710 nM.
As to `CC(C)CC(=O)[C@H]1CC[C@H]2[C@@H]3CCC4NC(=O)CC[C@]4(C)[C@H]3CC[C@]12C` (stereo partly drawn), the IC50 was over 100000 nM.
Take `CCN(CC)C(=O)[C@H]1CC[C@H]2[C@@H]3CC[C@H]4N(C)C(=O)[C@@H](F)C[C@]4(C)[C@H]3CC[C@]12C`: half-maximal inhibition (IC50) was put at 1800 nM.
`CCN(CC)C(=O)[C@H]1CC[C@H]2[C@@H]3CC[C@H]4N(CC)C(=O)CC[C@]4(C)[C@H]3CC[C@]12C` yielded an IC50 of 32000 nM.
Still for that read-out and setting: the figure for `CN1C(=O)CC[C@H]2C1CC[C@@H]1[C@@H]2CC[C@@]2(C)[C@H]1CC[C@@]21CCCO1` (stereo partly drawn) is 2000 nM.
Same read-out and setting: the figure for `CCCCCCCCNC(=O)[C@H]1CC[C@H]2[C@@H]3CCC4N(C)C(=O)C=C[C@]4(C)[C@H]3CC[C@]12C` (stereo partly drawn) is 340 nM; for `C[C@]12CC[C@H]3[C@@H](CCC4NC(=O)C=C[C@@]43C)[C@@H]1CC[C@@H]2C(=O)Sc1ccccn1` (stereo partly drawn) it is over 10000 nM.
Regarding `CN1C(=O)CC[C@H]2C1=CC[C@@H]1[C@@H]2CC[C@@]2(C)[C@H]1CC[C@@]21CCCO1` (stereo in doubt; 75), half-maximal inhibition (IC50) required 150 nM.
The same measure, in the same setting: with `CC(C)(C)CC(C)(C)NC(=O)[C@H]1CC[C@H]2[C@@H]3CCC4NC(=O)C=C[C@]4(C)[C@H]3CC[C@]12C` (stereo partly drawn) the figure was over 100000 nM; with `CC(C)N(C(=O)[C@H]1CC[C@H]2[C@@H]3CC=C4N(C)C(=O)CC[C@]4(C)[C@H]3CC[C@]12C)C(C)C`, 10000 nM; with `CCN(CC)C(=O)[C@H]1CC[C@H]2[C@@H]3CC[C@H]4N(C)C(=O)[C@H](OC)C[C@]4(C)[C@H]3CC[C@]12C`, over 10000 nM.
The same measure, in the same setting: the figure for `CCNC(=O)[C@H]1CC[C@H]2[C@@H]3CC[C@H]4NC(=O)C=C[C@]4(C)[C@H]3CC[C@]12C` is over 10000 nM; for `CC(=O)[C@H]1CC[C@H]2[C@@H]3CCC4=CC(=O)CC[C@]4(C)[C@H]3[C@H](O)C[C@]12C` it is 330 nM.
Regarding `CC(C(=O)O)[C@H]1CC[C@H]2[C@@H]3CCC4NC(=O)C=C[C@]4(C)[C@H]3CC[C@]12C` (stereo partly drawn), the IC50 is over 100000 nM.
For `CN1C(=O)CC[C@@]2(C)C1=CC[C@H]1[C@@H]3CC[C@H](O)[C@@]3(C)CC[C@@H]12`, it took 7.4 nM to reach half-maximal inhibition (IC50).
On to `CCN(CC)C(=O)[C@H]1CC[C@H]2[C@@H]3CC[C@H]4N(C)C(=O)CCC[C@]4(C)[C@H]3CC[C@]12C`, for which it took 600 nM to reach half-maximal inhibition (IC50).
In turn, `C[C@]12CC[C@H]3[C@@H](CCC4NC(=O)CC[C@@]43C)[C@@H]1CC[C@@H]2C(=O)c1ccc[nH]1` (stereo partly drawn) showed an IC50 of 15000 nM.
Turning to `CC(C)N(C(=O)[C@H]1CC[C@H]2[C@@H]3CC=C4N(C)C(=O)C=C[C@]4(C)[C@H]3CC[C@]12C)C(C)C`, the IC50 stood at 6400 nM.
For `CC(C(=O)O)[C@H]1CC[C@H]2[C@@H]3CCC4N(C)C(=O)C=C[C@]4(C)[C@H]3CC[C@]12C` (stereo partly drawn), the IC50 was over 100000 nM.
Same read-out and setting: with `CN1C(=O)C=C[C@@]2(C)C1CC[C@H]1[C@@H]3CC[C@H](C(=O)c4ccc[nH]4)[C@@]3(C)CC[C@@H]12` (stereo partly drawn) the figure was 15 nM; with `C[C@]12CC[C@H]3[C@@H](CCC4NC(=O)C=C[C@@]43C)[C@@H]1CC[C@@H]2C(=O)c1ccc[nH]1` (stereo partly drawn), 8000 nM; with `C[C@]12C=CC(=O)N[C@@H]1CC[C@@H]1[C@@H]2CC[C@]2(C)[C@@H](O)CC[C@@H]12`, 170 nM.
The same measure, in the same setting: the figure for `CCNC(=O)[C@H]1CC[C@H]2[C@@H]3CC[C@H]4N(C)C(=O)C=C[C@]4(C)[C@H]3CC[C@]12C` is 83 nM.
The compound `CN1C(=O)C=C[C@@]2(C)C1CC[C@H]1[C@@H]3CC[C@H](C(=O)Sc4ccccn4)[C@@]3(C)CC[C@@H]12` (stereo partly drawn) gave an IC50 of 100 nM.
Consider `CN1C(=O)CC[C@@]2(C)C1CC[C@H]1[C@@H]3CC[C@H](C(=O)c4ccc[nH]4)[C@@]3(C)CC[C@@H]12` (stereo partly drawn), for which the 50% inhibitory concentration (IC50) stood at 89 nM.
The same measure, in the same setting: with `COC(=O)C(C)[C@H]1CC[C@H]2[C@@H]3CCC4NC(=O)C=C[C@]4(C)[C@H]3CC[C@]12C` (stereo partly drawn) the figure was over 100000 nM.

A further experiment has as its target T2, Steroid 5-alpha-reductase (Rattus norvegicus, UniProt P24008+P31214).
T2 sequence (P24008 whole entry): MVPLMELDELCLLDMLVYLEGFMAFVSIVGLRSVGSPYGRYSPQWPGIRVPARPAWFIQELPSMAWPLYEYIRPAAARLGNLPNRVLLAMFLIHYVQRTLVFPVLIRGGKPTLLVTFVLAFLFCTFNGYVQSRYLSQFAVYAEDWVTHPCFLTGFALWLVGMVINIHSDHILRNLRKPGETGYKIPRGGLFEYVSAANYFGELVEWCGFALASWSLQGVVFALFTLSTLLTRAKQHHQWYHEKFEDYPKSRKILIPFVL
T2 sequence (P31214 whole entry): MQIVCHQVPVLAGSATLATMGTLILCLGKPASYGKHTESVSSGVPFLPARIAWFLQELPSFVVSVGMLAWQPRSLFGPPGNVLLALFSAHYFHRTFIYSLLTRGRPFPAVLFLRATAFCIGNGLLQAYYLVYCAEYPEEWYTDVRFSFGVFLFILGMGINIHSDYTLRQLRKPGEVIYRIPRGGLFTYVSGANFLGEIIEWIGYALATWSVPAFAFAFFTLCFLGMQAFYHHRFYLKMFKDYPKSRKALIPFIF
Description: In vitro inhibitory activity against rat prostatic steroid 5-alpha-reductase. In kind it is protein assay.
The compound `CCNC(=O)[C@H]1CC[C@H]2[C@@H]3CCC4N(C)C(=O)CC[C@]4(C)[C@H]3CC[C@]12C` (stereo partly drawn) gave an IC50 of 12 nM.
On the same count and under the same terms, the figure for `CCC(C)C(=O)[C@H]1CC[C@H]2[C@@H]3CCC4NC(=O)C=C[C@]4(C)[C@H]3CC[C@]12C` (stereo partly drawn) is 50 nM.
In the case of `CCCCCCCCNC(=O)[C@H]1CC[C@H]2[C@@H]3CCC4NC(=O)CC[C@]4(C)[C@H]3CC[C@]12C` (stereo partly drawn), the IC50 is 0.13 nM.
Still for that read-out and setting: the figure for `CCN(CC)C(=O)C[C@H]1CC[C@H]2[C@@H]3CCC4N(C)C(=O)CC[C@]4(C)[C@H]3CC[C@]12C` (stereo partly drawn) is 7.9 nM.
On to `COC(=O)[C@H]1CC[C@H]2[C@@H]3CCC4NC(=O)CC[C@]4(C)[C@H]3CC[C@]12C` (stereo partly drawn), for which the Ki app amounted to 133 nM.
Take `CC(C)(C)NC(=O)[C@H]1CC[C@H]2[C@@H]3CC[C@H]4NC(=O)C=C[C@]4(C)[C@H]3CC[C@]12C` [FINASTERIDE]: the IC50 came out at 6.8 nM.
